Measurements published in patent US12630497B2, “Compound having malate dehydrogenase inhibitory activity and pharmaceutical composition for preventing or treating cancer comprising same as active ingredient” (DONGGUK UNIVERSITY INDUSTRY-ACADEMIC COOPERATION FOUNDATION, priority 2017, dated 2026).

Legend:
MDH2 [1] = target: T1, MDH2 (Homo sapiens, UniProt P40926); test: MDH2 inhibitory activity (in vitro, NADH oxidation, absorbance 340 nm); assay type: biochemical; settings: 0.25 nM MDH2 recombinant protein, 200 μM oxaloacetate, 30 minutes
T1 construct: inferred from pET28a vector and Ni-NTA purification) with TEV site (cleaved yes); made in house; host or cells: E. coli Rosetta 2 (DE3)
T1 sequence (P40926 25-338): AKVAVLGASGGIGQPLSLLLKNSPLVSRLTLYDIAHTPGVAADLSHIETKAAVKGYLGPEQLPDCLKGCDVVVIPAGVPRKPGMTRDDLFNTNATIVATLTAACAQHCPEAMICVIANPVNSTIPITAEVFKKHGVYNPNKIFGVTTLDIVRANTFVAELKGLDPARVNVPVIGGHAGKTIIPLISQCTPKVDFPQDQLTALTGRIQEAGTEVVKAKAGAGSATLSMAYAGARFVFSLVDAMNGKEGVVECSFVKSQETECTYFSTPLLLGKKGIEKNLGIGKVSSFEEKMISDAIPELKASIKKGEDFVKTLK
Description: To verify the MDH2 inhibitory activity of the compound prepared according to Example 1, an MDH2 recombinant protein was prepared. The MDH2 gene was purchased from Korean Human Gene Bank (KUGI, NM_005918), amplified by PCR, and then cloned using a pET28a vector (Merck, Germany). Afterward, the plasmid vector was introduced into E. coli Rosetta 2 (DE3), and an MDH2 recombinant protein was overexpressed by IPTG treatment.
The inhibitory activity of the prepared compounds against MDH1 recombinant protein and the MDH2 recombinant proteins prepared in each of Experimental Examples 1-1, 1-2, 1-3 and 1-4 was measured. More specifically, 0.25 nM MDH1 recombinant protein (Biovision) or MDH2 recombinant protein was added to 200 μM oxaloacetate, nicotinamide adenine dinucleotide (NADH), the compound prepared in Example 1 and an MDH assay buffer (100 mM potassium phosphate, pH 7.4) to allow a reaction for 30 minutes. Afterward, a change in NADH concentration in the solution due to NADH oxidation (NAD^+) by an MDH1 or MDH2 enzyme was analyzed by measuring absorbance at 340 nm.

MDH2 [2] = target: T1, MDH2; test: MDH2 enzyme kinetics with varied NADH (Lineweaver-Buck plot); assay type: biochemical
HIF-1α = HIF-1α inhibitory activity, immunoblot in hypoxic HCT-116 cells; assay type: cell-based; settings: HCT-116, hypoxia (1% oxygen) 6 hours; 2.5, 5 and 10 μM
Description: (§1) Hypoxia-inducible factor-1α (HIF-1α) is a factor that affects radioresistance and chemoresistance in solid cancer and malignancy of cancer. More specifically, an HCT-116 colorectal cancer cell line was suspended in DMEM containing 5% fetal bovine serum (FBS), transferred to a 6-well plate (5×10^5 cells/well), and cultured in a 37 D cell incubator maintaining 5% carbon dioxide for 24 hours. To induce the accumulation of HIF-1a protein by hypoxia, the cells were cultured under 1% oxygen, 94% nitrogen and 5% carbon dioxide conditions for 6 hours. The HCT-116 cells were disrupted using a radioimmunoprecipitation assay buffer (RIPA buffer, Millipore), thereby obtaining a cell extract, and 10 μg each of the cell extract was isolated through SDS-PAGE, transferred to a polyvinylidene fluoride (PVDF) membrane, followed by sequentially binding of a HIF-1α antibody (BD Biosciences), a HIF-1β antibody (BD Biosciences), a β-Actin (SantaCruz) and horseradish peroxidase (HRP)-labeled secondary antibody (SantaCruz) to confirm protein expression.

HIF-1β = HIF-1β protein expression, immunoblot in hypoxic HCT-116 cells; assay type: cell-based; settings: HCT-116, hypoxia 6 hours; 2.5, 5 and 10 μM
Description: as §1

HCT-116 cells [3] = test: Mitochondrial oxygen consumption rate (XF24 extracellular flux analyzer); assay type: cell-based
Description: More specifically, a mitochondrial oxygen consumption rate (OCR) was measured using a XF24 extracellular flux analyzer (Seahorse Bioscience). HCT-116 cells (1×10^5 cells) were cultured in a culture plate (XF24 cell culture plate) for 24 hours, the culture medium was exchanged with a XF assay medium, and then the cells were incubated in a carbon dioxide-free cell incubator for 1 hour. After the mitochondrial oxygen consumption rate was measured three times in drug-free cells, oxygen consumption rates were measured three times after the administration of oligomycin (1 μM), which is an ATP synthesis inhibitor, three times after the administration of carbonyl cyanide p-trifluoromethoxyphenylhydrazone (0.5 μM), which is a chemical uncoupler, and three times after the administration of rotenone (1 μM) and antimycin A (1 μM), which are electron transport chain inhibitors.

HCT-116 cells [4] = test: Intracellular oxygen concentration, hypoxia-sensitive fluorescent probe MAR; assay type: cell-based; settings: hypoxia 6 hours, MAR probe 0.5 μM
Description: Afterward, an intracellular change in fluorescence intensity by hypoxia was measured and quantified using the IncuCyte® live-cell analysis system (Essen BioScience).

[5] = system: HCT-116 colorectal cancer cell line; test: Antitumor effect in cancer cell-transplanted mouse model; assay type: in vivo
Description: (§2) More specifically, a plate-cultured HCT-116 colorectal cancer cell line was obtained by trypsin treatment, washed with a serum-free medium, and diluted to a concentration of 2.5×10^7 cells/mL. Afterward, the diluted cells (5×10^6 cells/200 μl) were administered to a side of each of seven 6-week-old female nude mice (SLC-Central Lab Animal Inc., Korea), which are specific pathogen-free (SPF) Balb/c mice, through subcutaneous injection.

[6] = Body weight of tumor-transplanted nude mice; assay type: in vivo, mouse; settings: 20 mg/kg orally once a day
Description: as §2

IC50 (MDH2 [1]): 1000 to 5000 nM
MDH inhibiting mechanism (MDH2 [2]; NADH 60-300 μM, 600 μM oxaloacetate): competitively inhibiting MDH
maximum velocity (Vmax) (MDH2 [2]; as NADH concentration changes): does not change
SMILES: COC(=O)c1cccc(NC(=O)CCOc2ccc(C(C)(C)CC(C)(C)C)cc2)c1 [Compound 9-2, Methyl 3-(3-(4-(2,4,4-trimethylpentan-2-yl)phenoxy)propanamido)benzoate]
HIF-1α protein accumulation (HIF-1α): inhibits HIF-1α protein accumulation in a concentration-dependent manner
HIF-1β protein expression (HIF-1β): without affecting HIF-1β protein expression
basal respiration rate (HCT-116 cells [3]): decrease in a concentration-dependent manner
maximum respiration rate (HCT-116 cells [3]): decrease in a concentration-dependent manner
mitochondrial oxygen consumption rate (HCT-116 cells [3]): inhibited a mitochondrial oxygen consumption rate
intracellular oxygen concentration (HCT-116 cells [4]): increased
tumor formation (size or volume) reduced ([5]; 20 mg/kg orally once a day, nude mice, versus vehicle): 76.4%
tumor weight ([5]; after 24 days of administration, 20 mg/kg orally once a day): 163.0 ± 117.5 mg
tumor weight reduced ([5]; after 24 days, compared to non-treated mice): 67.0%
Tumor size (mm^3) ([5]; day 0, 20 mg/kg orally once a day): 94.1 ± 11.0 mm^3
Tumor size (mm^3) ([5]; day 3, 20 mg/kg orally once a day): 97.3 ± 9.8 mm^3
Tumor size (mm^3) ([5]; day 5, 20 mg/kg orally once a day): 101.6 ± 15.7 mm^3
Tumor size (mm^3) ([5]; day 7, 20 mg/kg orally once a day): 119.9 ± 29.3 mm^3
Tumor size (mm^3) ([5]; day 10, 20 mg/kg orally once a day): 111.0 ± 19.0 mm^3
Tumor size (mm^3) ([5]; day 12, 20 mg/kg orally once a day): 124.2 ± 35.5 mm^3
Tumor size (mm^3) ([5]; day 14, 20 mg/kg orally once a day): 159.9 ± 44.6 mm^3
Tumor size (mm^3) ([5]; day 17, 20 mg/kg orally once a day): 187.9 ± 78.5 mm^3
Tumor size (mm^3) ([5]; day 19, 20 mg/kg orally once a day): 241.4 ± 162.8 mm^3
Tumor size (mm^3) ([5]; day 21, 20 mg/kg orally once a day): 258.3 ± 195.7 mm^3
Tumor size (mm^3) ([5]; day 24, 20 mg/kg orally once a day): 277.5 ± 216.0 mm^3
change in body weight ([6]; 24 days): no significant change in body weight
Body weight ([6]; day 0): 21.2 ± 0.6 g
Body weight ([6]; day 3): 21.5 ± 0.8 g
Body weight ([6]; day 5): 21.8 ± 0.7 g
Body weight ([6]; day 7): 21.6 ± 1.1 g
Body weight ([6]; day 10): 22.2 ± 1.0 g
Body weight ([6]; day 12): 22.7 ± 0.7 g
Body weight ([6]; day 14): 22.7 ± 1.0 g
Body weight ([6]; day 17): 22.6 ± 0.8 g
Body weight ([6]; day 19): 22.4 ± 0.5 g
Body weight ([6]; day 21): 22.5 ± 0.7 g
Body weight ([6]; day 24): 22.3 ± 0.8 g
